Laboratory results reported in patent publication EP0173480A2, “The antiviral use of phyllanthostatins” (priority 1984, dated 1986).
Entries after “also recorded” stand apart in the source; their conditions may differ. Like-named read-outs stand apart in the source and are kept apart here.

Assays:
[1] = system: HSV-2; assay: Cell culture antiviral activity, agar-well zones of cytotoxicity / plaque inhibition; settings: second figure of the cell, 50 pg of test compound (so in the source)
[2] = system: HA-1; assay: as above; settings: 50 pg of test compound (so in the source); for zone of cytotoxicity: first figure of the cell; for zone of antiviral activity (viral plaque inhibition): second figure of the cell
[3] = system: herpes simplex virus type 2 (HSV-2, MS); assay: Inhibition of virus replication, virus yield by plaque method; format: cell-based; settings: for ED90 MS: HSV-2 in Vero cells, drug concentration reducing virus titers by 90%
[4] = system: Herpes Simplex virus type 2 (HSV-2, strain 35D); assay: Genital HSV-2 infection of female mice, intravaginal treatment, survival; format: in vivo; settings: for mice survived (of 14): study of Table 3; for %S (percent survivors) / MDD (mean day of death): N 14; for protection of mice from lethal genital HSV-2 infection, summary in words: intravaginally from one hour after inoculation, 3 times daily
[5] = system: PR-8; settings: 50 pg of test compound (so in the source); for zone of cytotoxicity: first figure of the cell; for zone of antiviral activity (viral plaque inhibition): second figure of the cell
[6] = system: HSV-1; assay: Cell culture antiviral activity, agar-well zones of cytotoxicity / plaque inhibition; settings: second figure of the cell, 50 pg of test compound (so in the source)
[7] = system: VSV (vesicular stomatitis virus); format: cell-based; set-up: ED90 VSV: unit not given beside the values; settings: Vero cells
[8] = system: Coe; assay: Cell culture antiviral activity, agar-well zones of cytotoxicity / plaque inhibition; settings: second figure of the cell, 50 pg of test compound (so in the source)
[9] = system: coxsackie A21; format: cell-based; set-up: ED90 Col: unit not given beside the values; settings: for coxsackie A21 virus yield: ML cells
[10] = system: herpes simplex virus type 1 (HSV-1, McIntyre); assay: Inhibition of virus replication, virus yield by plaque method; format: cell-based; set-up: ED90 McIntyre: unit not given here; settings: for ED90 McIntyre: HSV-1 in Vero cells, drug concentration reducing virus titers by 90%, unit only in b38; for HSV-1 virus yield: Vero cells
[11] = system: Vero cells; settings: monkey
[12] = system: Vacc.; settings: 50 pg of test compound (so in the source); for zone of cytotoxicity: first figure of the cell; for zone of antiviral activity (viral plaque inhibition): second figure of the cell
[13] = system: E.R.; settings: 50 pg of test compound (so in the source); for zone of cytotoxicity: first figure of the cell; for zone of antiviral activity (viral plaque inhibition): second figure of the cell
[14] = system: coxsackie B3 virus (Nancy Strain); assay: Inhibition of virus replication, virus yield in Vero cells; format: cell-based
[15] = system: Herpes Simplex virus type 2 (HSV-2, strain 35D); assay: Genital HSV-2 infection of female mice, virus titers in vaginal secretions; format: in vivo; settings: for Mean virus titer in swabs of mice which shed virus / Nv/Nt, swabs with virus/total swabs: 8.0 x 10^4 PFU;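 for Mean virus titer in swabs of mice which shed virus: titer expressed as log PFU per ml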
[16] = 8.0 x 10^3 PFU/0.1 ml, mg/ml cell empty (1 mg/ml in upper section)
[17] = 8.0 x 10^4 PFU/0.1 ml, 1 mg/ml intravaginally
[18] = day 1 after HSV-2 inoc., 0.5 mg/ml
[19] = day 1 after HSV-2 inoc., 1 mg/ml
[20] = day 2 after HSV-2 inoc., 0.5 mg/ml
[21] = day 2 after HSV-2 inoc., 1 mg/ml
[22] = day 3 after HSV-2 inoc., 0.5 mg/ml
[23] = day 3 after HSV-2 inoc., 1 mg/ml
[24] = day 4 after HSV-2 inoc., 0.5 mg/ml
[25] = day 4 after HSV-2 inoc., 1 mg/ml
[26] = day 7 after HSV-2 inoc., 0.5 mg/ml
[27] = day 7 after HSV-2 inoc., 1 mg/ml
[28] = second study, 8.0 x 10^4 PFU in 0.1 ml, 0.5 mg/ml
[29] = higher drug concentrations (5 and 50 µg/ml) compared with 0.5

Compound: COC(=O)C1CCC2C(C1)OC1(CC(OC(=O)/C=C/c3ccccc3)C(C)CO1)C21CO1 (stereo not shown) [Phyllanthocin]
- zone of antiviral activity (viral plaque inhibition) [1]: 2 (2 - 20-30 mm)
- zone of cytotoxicity [2]: 0/0
- zone of antiviral activity (viral plaque inhibition) [2]: 0/0
- ED90 MS [3]: 7.99 µg per ml
- ED90 MS ([3]; 1440 min): 7.9939 µg per ml
- HSV-2 yields reduced by ([3]; Vero cells, 5 µg per ml): greater than 1 log
- HSV-2 virus yield ([3]; Vero cells, 5 µg/ml): reductions in yields; also recorded: inhibitory
- HSV-2 virus yield ([3]; Vero cells, 50 µg/ml): reduced yields of all viruses; also recorded: reduction in titers of all viruses
- mice survived (of 14) ([4]; 8.0 x 10^3 PFU in 0.1 ml): four
- %S (percent survivors) [4, 16]: 29%
- MDD (mean day of death) [4, 16]: 8.5 days
- mice survived (of 14) ([4]; 8.0 x 10^4 PFU in 0.1 ml): did not protect mice from lethal infection
- %S (percent survivors) [4, 17]: 14%
- MDD (mean day of death) [4, 17]: 8.0 days
- protection of mice from lethal genital HSV-2 infection, summary in words [4]: devoid of antiviral activity
- zone of cytotoxicity [5]: 2 (2 - 20-30 mm)
- zone of antiviral activity (viral plaque inhibition) [5]: 0
- zone of antiviral activity (viral plaque inhibition) [6]: 3
- VSV virus yield ([7]; 5 µg/ml (below 5 µg per ml)): non-inhibitory; also recorded: not affected; also recorded: not for VSV or Coxsackie A-21
- VSV virus yield ([7]; 50 µg/ml): reduced yields of all viruses; also recorded: reduction in titers of all viruses
- ED90 VSV ([7]; reduces virus yield by 90%, unit not given, NS - not significant): 8.668
- zone of antiviral activity (viral plaque inhibition) [8]: 0/0
- coxsackie A21 virus yield ([9]; 5 µg/ml (below 5 µg per ml)): non-inhibitory; also recorded: did not reduce the yields; also recorded: not affected; also recorded: not for VSV or Coxsackie A-21
- coxsackie A21 virus yield ([9]; 50 µg/ml): reduced yields of all viruses; also recorded: reduction in titers of all viruses
- ED90 Col ([9]; […], unit not given, NS - not significant): 61.7506
- ED90 McIntyre [10]: 7.1380
- ED90 McIntyre ([10]; listed as phyllanthocin): 7.14
- HSV-1 virus yield ([10]; 5 µg/ml): only modestly inhibitory; also recorded: reductions in yields
- HSV-1 virus yield ([10]; 50 µg/ml): reduced yields of all viruses; also recorded: reduction in titers of all viruses
- times less cytotoxic than phyllanthoside or phyllanthostatin I [11]: 2-5
- ID50 Vero 72 hrs. ([11]; vero cells, 72 h): 5.91 mg per ml
- zone of cytotoxicity [12]: 0
- zone of antiviral activity (viral plaque inhibition) [12]: 4
- zone of cytotoxicity [13]: 0/0
- zone of antiviral activity (viral plaque inhibition) [13]: 0/0
- coxsackie B3 virus yield ([14]; 5 µg per ml): inhibitory for coxsackie B3 replication

Compound: Phyllanthostatin 3
- HSV-2 virus yield ([3]; Vero cells, 50 µg/ml): slight reduction in yields
- HSV-1 virus yield ([10]; 50 µg/ml): slight reduction in yields

Compound: Phyllanthostatin I
- mean titers compared with controls ([15]; 0.5 mg/ml, day 4): nearly the same as that in the controls
- mean virus titers less than placebo treated group ([15]; 0.5 mg/ml, days 2 and 3): about 0.7 logs
- mean titer less than the placebo ([15]; 1 mg/ml, day 1): greater than 2 logs
- mean virus titers lower than placebo treated controls ([15]; 1 mg/ml, days 2 through 4): about 0.5 logs
- Mean virus titer in swabs of mice which shed virus [15, 18]: 2.69 log PFU/ml
- Nv/Nt, swabs with virus/total swabs [15, 18]: 9/10
- Mean virus titer in swabs of mice which shed virus [15, 19]: 1.67 log PFU/ml
- Nv/Nt, swabs with virus/total swabs [15, 19]: 4
- Nv/Nt, swabs with virus/total swabs ([15]; day 1 after HSV-2 inoc., 1 mg/ml, listed as Phyllanostatin I): 6/10
- Mean virus titer in swabs of mice which shed virus [15, 20]: 3.76 log PFU/ml
- Nv/Nt, swabs with virus/total swabs [15, 20]: 10/10
- Mean virus titer in swabs of mice which shed virus [15, 21]: 3.83 log PFU/ml
- Nv/Nt, swabs with virus/total swabs [15, 21]: 8/10
- Mean virus titer in swabs of mice which shed virus [15, 22]: 3.71 log PFU/ml
- Nv/Nt, swabs with virus/total swabs [15, 22]: 10/10
- Mean virus titer in swabs of mice which shed virus [15, 23]: 3.93 log PFU/ml
- Nv/Nt, swabs with virus/total swabs [15, 23]: 8/10
- Mean virus titer in swabs of mice which shed virus [15, 24]: 4.13 log PFU/ml
- Nv/Nt, swabs with virus/total swabs [15, 24]: 10/10
- Mean virus titer in swabs of mice which shed virus [15, 25]: 3.63 log PFU/ml
- Nv/Nt, swabs with virus/total swabs [15, 25]: 8/10
- Mean virus titer in swabs of mice which shed virus [15, 26]: (3.98) log PFU/ml
- Nv/Nt, swabs with virus/total swabs [15, 26]: 1/1
- Mean virus titer in swabs of mice which shed virus [15, 27]: 3.47 log PFU/ml
- Nv/Nt, swabs with virus/total swabs [15, 27]: 3/5
- zone of antiviral activity (viral plaque inhibition) [1]: 4/4
- zone of cytotoxicity [2]: 4
- zone of antiviral activity (viral plaque inhibition) [2]: 0
- ED90 MS [3]: 1.64 µg per ml
- ED90 MS ([3]; 1440 min): 1.164 µg per ml
- HSV-2 virus yield ([3]; Vero cells, 0.5 µg/ml): most susceptible virus to inhibition
- HSV-2 virus yield ([3]; Vero cells, higher drug concentrations (5 and 50 µg/ml) compared with 0.5): further reductions in all virus yields
- mice survived (of 14) ([4]; 8.0 x 10^3 PFU in 0.1 ml): 10
- %S (percent survivors) [4, 16]: 71%
- MDD (mean day of death) [4, 16]: 11.8 days
- mice survived (of 14) ([4]; 8.0 x 10^4 PFU in 0.1 ml): 4
- %S (percent survivors) [4, 17]: 29%
- MDD (mean day of death) [4, 17]: 7.4 days
- protection of mice from lethal genital HSV-2 infection, summary in words [4]: protected mice from lethal infection when the virus inoculum was reduced
- MDD [4, 28]: the same as the saline and DMSO saline treated group
- mice survived [4, 28]: all of the animals succumed to infection
- death of mice ([4]; second study, 8.0 x 10^4 PFU in 0.1 ml, 1 mg/ml): 80%
- zone of cytotoxicity [5]: 2/2 (2 - 20-30 mm)
- zone of antiviral activity (viral plaque inhibition) [5]: 2/2 (2 - 20-30 mm)
- zone of antiviral activity (viral plaque inhibition) [6]: 4/4
- VSV virus yield [7, 29]: further reductions in all virus yields
- zone of antiviral activity (viral plaque inhibition) [8]: 0
- coxsackie A21 virus yield ([9]; 5 µg/ml (below 5 µg per ml)): inhibitory for both viruses
- coxsackie A21 virus yield ([9]; below 5 µg per ml (i.e., 0.5 or 1), study of b36): reduced titers of coxsackie A21
- coxsackie A21 virus yield [9, 29]: further reductions in all virus yields
- ED90 McIntyre ([10]; listed as Phyllanthostatin): 2.3743
- ED90 McIntyre ([10]; listed as phyllanthostatin I): 2.37
- HSV-1 virus yield [10, 29]: further reductions in all virus yields
- zone of cytotoxicity [12]: 4/4
- zone of antiviral activity (viral plaque inhibition) [12]: 4/4
- zone of cytotoxicity [13]: 2 (2 - 20-30 mm)
- zone of antiviral activity (viral plaque inhibition) [13]: 4
- coxsackie B3 virus yield ([14]; 5 µg per ml): inhibitory for both viruses
- coxsackie B3 virus yield ([14]; below 5 µg per ml (i.e., 0.5 or 1)): unaffected
